Assay results published in ChEMBL document CHEMBL4616592, “Design, synthesis and bio-evaluation of C-1 alkylated tetrahydro-β-carboline derivatives as novel antifungal lead compounds” (Bioorg Med Chem Lett, 2020).
Converted amounts (≈) assume the structure as drawn. The source made the active and inactive calls. No cut-off for these calls is given here.

What was measured:
Kluyveromyces marxianus = assay: Antifungal activity against Candida kefyr assessed as fungal growth inhibition; format: functional
Candida tropicalis = assay: Antifungal activity against Candida tropicalis assessed as fungal growth inhibition; format: functional
Candida parapsilosis = assay: Antifungal activity against Candida parapsilosis assessed as fungal growth inhibition; format: functional; conditions: Lodderomyces parapsilosis
Cryptococcus neoformans = assay: Antifungal activity against Cryptococcus neoformans assessed as fungal growth inhibition; format: functional
Nakaseomyces glabratus [1] = assay: Antifungal activity against Candida glabrata assessed as fungal growth inhibition; format: functional
Candida albicans = assay: Antifungal activity against Candida albicans assessed as fungal growth inhibition; format: functional
Pichia kudriavzevii = assay: Antifungal activity against Candida krusei assessed as fungal growth inhibition; format: functional
Nakaseomyces glabratus [2] = assay: Synergistic antifungal activity against Candida glabrata assessed as fold potentiation of fluconazole MIC for antifungal activity by checkerboard assay relative to control; format: functional
Nakaseomyces glabratus [3] = assay: Synergistic antifungal activity against Candida glabrata assessed as fractional inhibitory concentration index in presence of ketoconazole by checkerboard assay; format: functional
Nakaseomyces glabratus [4] = assay: Induction of apoptosis in Candida glabrata assessed as necrotic cells at 9.70 uM incubated for 4 hrs by annexin V-FITC/propidium iodide staining based analysis (reference value: 1.4%); format: functional
Nakaseomyces glabratus [5] = assay: Induction of morphological changes in Candida glabrata assessed as disintegration of cell surface at 9.7 uM by FE-SEM analysis; format: functional, organism-based
Nakaseomyces glabratus [6] = assay: Induction of morphological changes in Candida glabrata assessed as roughness of cell surface at 9.7 uM by FE-SEM analysis; format: functional, organism-based
Nakaseomyces glabratus [7] = assay: Synergistic antifungal activity against Candida glabrata assessed as fold potentiation of AmphotericinB MIC for antifungal activity by checkerboard assay relative to control; format: functional
[8] = Cytotoxicity against human HEK293 cells assessed as cell viability at 2.5 uM by MTT assay relative to control; format: cell-based; conditions: read-out: Activity
[9] = Cytotoxicity against human HeLa cells assessed as cell viability at 20 to 50 uM by MTT assay relative to control; format: cell-based; conditions: read-out: Activity
Nakaseomyces glabratus [10] = assay: Induction of morphological changes in Candida glabrata assessed as increase in asymmetry at 9.7 uM by FE-SEM analysis; format: functional, organism-based
Nakaseomyces glabratus [11] = assay: Induction of apoptosis in Candida glabrata assessed as late apoptotic cells at 9.70 uM incubated for 4 hrs by annexin V-FITC/propidium iodide staining based analysis (reference value: 0.1%); format: functional
[12] = Cytotoxicity against human HeLa cells assessed as reduction in cell viability at 10 uM by MTT assay relative to control; format: cell-based; conditions: read-out: INH
Nakaseomyces glabratus [13] = assay: Induction of apoptosis in Candida glabrata assessed as early apoptotic cells at 9.70 uM incubated for 4 hrs by annexin V-FITC/propidium iodide staining based analysis (reference value: 3%); format: functional
Nakaseomyces glabratus [14] = assay: Synergistic antifungal activity against Candida glabrata assessed as fold potentiation of ketoconazole MIC for antifungal activity by checkerboard assay relative to control; format: functional
Nakaseomyces glabratus [15] = assay: Synergistic antifungal activity against Candida glabrata assessed as fractional inhibitory concentration index in presence of amphotericin B by checkerboard assay; format: functional
[16] = Cytotoxicity against human HEK293 cells assessed as reduction in cell viability at 10 uM by MTT assay relative to control; format: cell-based; conditions: read-out: INH
[17] = Cytotoxicity against human HEK293 cells assessed as cell viability at 20 to 50 uM by MTT assay relative to control; format: cell-based; conditions: read-out: Activity
Nakaseomyces glabratus [18] = assay: Induction of apoptosis in Candida glabrata assessed as live cells at 9.70 uM incubated for 4 hrs by annexin V-FITC/propidium iodide staining based analysis (reference value: 95.5%); format: functional
Nakaseomyces glabratus [19] = assay: Synergistic antifungal activity against Candida glabrata assessed as fractional inhibitory concentration index in presence of fluconazole by checkerboard assay; format: functional
Nakaseomyces glabratus [20] = assay: Fungicidal activity against Candida glabrata assessed as time taken to kill fungal colony at MIC by time kill kinetic assay; format: functional

SMILES	MIC (Kluyveromyces marxianus)	MIC (Candida tropicalis)	MIC (Candida parapsilosis)	MIC (Cryptococcus neoformans)	MIC (Nakaseomyces glabratus [1])	MIC (Candida albicans)	MIC (Pichia kudriavzevii)	other results
COC(=O)[C@@H]1Cc2c([nH]c3ccccc23)[C@H](c2cccnc2)N1	> 250 µM	> 250 µM	> 250 µM	> 250 µM	> 250 µM	> 250 µM	> 250 µM	–
COC(=O)[C@@H]1Cc2c([nH]c3ccccc23)[C@H](c2cccs2)N1	> 250 µM	> 250 µM	> 250 µM	> 250 µM	> 250 µM	> 250 µM	> 250 µM	–
CC(=O)N1CCN(c2ccc(OCC3COC(Cn4ccnc4)(c4ccc(Cl)cc4Cl)O3)cc2)CC1 (stereo unspecified) [KETOCONAZOLE]	–	–	–	–	15.1 µM (≈ 8 µg/mL)	–	–	–
CCCCCCCC[C@H]1N[C@H](C(=O)OC)Cc2c1[nH]c1ccccc21	9.7 µM (≈ 3.32 µg/mL)	19.6 µM (≈ 6.7 µg/mL)	39.1 µM (≈ 13.4 µg/mL)	19.6 µM (≈ 6.7 µg/mL)	9.7 µM (≈ 3.32 µg/mL)	39.1 µM (≈ 13.4 µg/mL)	19.6 µM (≈ 6.7 µg/mL)	fold change (FC) (Nakaseomyces glabratus [2]): 4; fractional inhibitory concentration index (FICI) (Nakaseomyces glabratus [3]): 0.35 - 0.38; Activity (Nakaseomyces glabratus [4]): 3.2%; Activity (Nakaseomyces glabratus [5]): Active; Activity (Nakaseomyces glabratus [6]): Active; fold change (FC) (Nakaseomyces glabratus [7]): 11; viability at 2.5 µM [8]: 95%; viability at up to 50 µM [9]: 70 to 80%; Activity (Nakaseomyces glabratus [10]): Active; Activity (Nakaseomyces glabratus [11]): 87.7%; cytotoxicity at 10 µM [12]: 14%; Activity (Nakaseomyces glabratus [13]): 3.5%; fold change (FC) (Nakaseomyces glabratus [14]): 9; fractional inhibitory concentration index (FICI) (Nakaseomyces glabratus [15]): 0.24; cytotoxicity at 10 µM [16]: 10%; viability at up to 50 µM [17]: 70 to 80%; Activity (Nakaseomyces glabratus [18]): 5.6%; fractional inhibitory concentration index (FICI) (Nakaseomyces glabratus [19]): 0.48; Time (Nakaseomyces glabratus [20]): 12 h
COC(=O)[C@@H]1Cc2c([nH]c3ccccc23)[C@H](c2ccc3c(c2)OCO3)N1	> 250 µM	> 250 µM	> 250 µM	> 250 µM	> 250 µM	> 250 µM	> 250 µM	–
C[C@@H]1[C@H](O)[C@@H](C)/C=C/C=C/C=C/C=C/C=C/C=C/C=C/[C@H](O[C@@H]2O[C@H](C)[C@@H](O)[C@H](N)[C@@H]2O)C[C@@H]2O[C@](O)(C[C@@H](O)C[C@@H](O)[C@H](O)CC[C@@H](O)C[C@@H](O)CC(=O)O[C@H]1C)C[C@H](O)[C@H]2C(=O)O [AMPHOTERICIN B]	12.5 µM (≈ 11.6 µg/mL)	0.78 µM (≈ 0.721 µg/mL)	1.56 µM (≈ 1.44 µg/mL)	0.78 µM (≈ 0.721 µg/mL)	0.39 to 0.78 µM (≈ 0.36 to 0.721 µg/mL)	1.56 µM (≈ 1.44 µg/mL)	0.78 µM (≈ 0.721 µg/mL)	Time (Nakaseomyces glabratus [20]): 4 h
COC(=O)[C@@H]1Cc2c([nH]c3ccccc23)[C@H](c2ccccc2)N1	> 250 µM	> 250 µM	> 250 µM	> 250 µM	> 250 µM	> 250 µM	> 250 µM	–
CCCCCCCC[C@@H]1N[C@H](C(=O)OC)Cc2c1[nH]c1ccccc21	62.5 µM (≈ 21.4 µg/mL)	> 250 µM	> 250 µM	39.1 µM (≈ 13.4 µg/mL)	62.5 µM (≈ 21.4 µg/mL)	> 250 µM	> 250 µM	–
CCCCCC[C@@H]1N[C@H](C(=O)OC)Cc2c1[nH]c1ccccc21	> 250 µM	> 250 µM	> 250 µM	156 µM (≈ 49.1 µg/mL)	> 250 µM	> 250 µM	> 250 µM	–
COC(=O)[C@@H]1Cc2c([nH]c3ccccc23)[C@@H](c2cccs2)N1	> 250 µM	> 250 µM	> 250 µM	> 250 µM	> 250 µM	> 250 µM	> 250 µM	–
COC(=O)[C@@H]1Cc2c([nH]c3ccccc23)[C@@H](c2cccnc2)N1	> 250 µM	> 250 µM	> 250 µM	> 250 µM	> 250 µM	> 250 µM	> 250 µM	–
CCCC[C@@H]1N[C@H](C(=O)OC)Cc2c1[nH]c1ccccc21	> 250 µM	> 250 µM	> 250 µM	> 250 µM	> 250 µM	> 250 µM	> 250 µM	–
OC(Cn1cncn1)(Cn1cncn1)c1ccc(F)cc1F [FLUCONAZOLE]	–	–	–	–	13.1 µM (≈ 4 µg/mL)	–	–	–
COC(=O)[C@@H]1Cc2c([nH]c3ccccc23)[C@@H](c2ccc3c(c2)OCO3)N1	> 250 µM	> 250 µM	> 250 µM	> 250 µM	> 250 µM	> 250 µM	> 250 µM	–
CCCCCC[C@H]1N[C@H](C(=O)OC)Cc2c1[nH]c1ccccc21	> 250 µM	> 250 µM	> 250 µM	> 250 µM	> 250 µM	> 250 µM	> 250 µM	–
CCCCCCCCCCC[C@H]1N[C@H](C(=O)OC)Cc2c1[nH]c1ccccc21	> 250 µM	> 250 µM	> 250 µM	> 250 µM	> 250 µM	> 250 µM	> 250 µM	–
CCCCCCCCCCC[C@@H]1N[C@H](C(=O)OC)Cc2c1[nH]c1ccccc21	> 250 µM	> 250 µM	> 250 µM	> 250 µM	> 250 µM	> 250 µM	> 250 µM	–
CCCC[C@H]1N[C@H](C(=O)OC)Cc2c1[nH]c1ccccc21	156 µM (≈ 44.7 µg/mL)	> 250 µM	156 µM (≈ 44.7 µg/mL)	> 250 µM	> 250 µM	> 250 µM	156 µM (≈ 44.7 µg/mL)	–
COC(=O)[C@@H]1Cc2c([nH]c3ccccc23)[C@@H](c2ccccc2)N1	125 µM (≈ 38.3 µg/mL)	> 250 µM	> 250 µM	> 250 µM	> 250 µM	> 250 µM	> 250 µM	–
